Measurements published in patent US10718028B2, “Fluorescent probes for abasic site detection” (CASE WESTERN RESERVE UIVERSITY, priority 2015, dated 2020).

Experiments:
[1] = test system: AP sites in calf thymus DNA; assay: MX or ARP and Cy7MX genomic DNA competition assay; assay type: binding
Procedure: Calf thymus DNA was purchased from Sigma and was reconstituted overnight at 4° C. in either H2O or 500 mM MX (to eliminate basal AP sites) with gentle shaking (1.5 mL water or solution per 5 mg DNA). For samples reconstituted in MX solution, an ethanol precipitation was performed twice before heat and acid treatment (vide infra) then reconstituted in water. The DNA-water solution was aliquoted to 1.5 mL Eppendorf tubes (360 μL) and 10× Citrate buffer (1M NaCl, 100 μM monosodium phosphate, 100 μM monosodium citrate, pH 5.0) was added to a final concentration of 1×. For t=0 min samples, ice-cold 100% EtOH (1.0 mL) was added immediately and the Eppendorf tubes stored at −20° C. Other samples were placed in a 70° C. heating block for 15-90 minutes in 15-minute increments. Samples were removed from heat, precipitated in ice-cold 100% EtOH (1.0 mL), and then chilled at −20° C. for at least 20 minutes. Samples were centrifuged at 12,000×G for 10 min at 4° C. The supernatant was discarded. The process was repeated once beginning with the addition of EtOH (1.0 mL). The DNA pellet was dissolved in 700 μL H2O or TE buffer. Aliquots of 80 μL were put in 1.5 mL Eppendorf tubes. Any samples not used immediately were stored at −80° C.
Solutions of MX and Cy7MX were prepared in H2O varying [MX] from 0-1.9 M and maintaining at 25 μM. […] The ratios of MX:Cy7MX used in this study were: 0, 0.01, 0.1, 0.5, 1, 5, 10, 50, 100, 250, 500, 1000, 2500, 5000, 10000, 25000, 50000, and 75000. […] The following samples were prepared in triplicate: 20 μL of MX/Cy7MX solution was added to 80 μL aliquots of heat/acid treated DNA (t=45 min). Samples were incubated for 1 h at 37° C. in the dark. Ice-cold EtOH (1.0 mL) was added and the DNA was purified by EtOH precipitation three times as described in the heat/acid treatment of genomic DNA section. DNA was dissolved in 150 μL H2O. Aliquots (125 μL) of the samples were added to a black, clear-bottom 96 well plate (Corning) and analyzed with 750 nm excitation and 800 nm emission. Fluorescence was adjusted to DNA concentration.
As before (section 2.3.2) except solutions of ARP and Cy7MX were prepared in H2O varying [ARP] from 0-75 mM and maintaining at 1 μM. The ratios of ARP: Cy7MX used in this study were: 0, 0.1, 1, 10, 100, 500, 1000, 5000, 10000, 25000, 50000, and 75000.

DLD1 cells = assay: ARP analysis of FUDR treated DLD1 DNA; assay type: cell-based; conditions: ARP-based DNA Damage Quantification Kit, same DNA samples
Procedure: DNA aliquots (10 μL) from above were diluted in TE buffer (10 μL). DNA concentrations were measured on a Nanodrop 1000 and adjusted to 100 μg/mL in TE buffer. Samples were prepared for ARP analysis using the ARP DNA Damage Quantification Kit (Dojindo #DK02-12). Samples were prepared and analyzed according to the manufacturer's instructions.

## NOCC(=O)NNC(=O)CCCC[C@@H]1SC[C@@H]2NC(=O)N[C@@H]21 [ARP]
[1]; 1 h at 37° C., constant Cy7MX
  ED50 of Cy7MX, excess of competitor: 2600 × excess
[1]; calf thymus DNA heat/acid 45 min, FIG. 13
  ED50, molar ratio of probe to Cy7MX: 2600 fold excess
DLD1 cells
  background and sensitivity of AP site detection: larger background and lower sensitivity than compound Cy7MX
